Reference: patent publication US8785488B2 (Exelixis Patent Company LLC, priority 2009, dated 2014)

Molecular target: T1, human TGR5 (h-TGR5) (Homo sapiens, UniProt Q8TDU6)
T1 construct: expressed in transfected cells
T1 sequence (Q8TDU6 1-330): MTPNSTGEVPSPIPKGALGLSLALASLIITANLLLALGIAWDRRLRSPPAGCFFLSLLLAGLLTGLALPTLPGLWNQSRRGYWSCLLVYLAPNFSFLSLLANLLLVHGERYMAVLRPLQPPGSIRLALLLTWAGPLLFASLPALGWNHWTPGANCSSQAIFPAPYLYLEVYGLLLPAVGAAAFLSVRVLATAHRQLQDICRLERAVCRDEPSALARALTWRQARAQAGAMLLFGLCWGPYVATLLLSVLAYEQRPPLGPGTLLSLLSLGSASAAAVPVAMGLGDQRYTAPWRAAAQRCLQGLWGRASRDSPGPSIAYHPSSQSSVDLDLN
Assay: TGR5/CRE-Luciferiase Assay (HEK 293 hTGR5/CRE-Luc cells)
Assay type: cell-based
Conditions: h-TGR5 CRE-Luc EC50, Table 1; read-out: CRE-Luc (EC50)
Method in brief: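 HEK293 cells stably carrying hTGR5 and a CRE-luciferase reporter were exposed to serially diluted compounds (diluted in DMEM with 5% DMSO) for 6 h. Cells were then lysed in luciferase buffer, luminescence was read, and EC50 values were derived from dose-response curves.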

Structure (SMILES) | EC50
CC(C)(c1ccc(Cl)c(Cl)c1)c1cnc(SCc2ccc(F)cc2Cl)n1-c1ccc(F)c(C#N)c1 [5-(2-{[(2-chloro-4-fluorophenyl)methyl]thio}-5-[1-(3,4-dichlorophenyl)-1-methylethyl]-1H-imidazol-1-yl)-2-fluorobenzonitrile] | 100 to 1000 nM
CC(C)(C)OC(=O)N1CCC(NCc2ncc(C(C)(C)c3ccc(Cl)c(Cl)c3)n2-c2ccc(F)cc2)CC1 | 1000 to 10000 nM
CC(C)(c1ccc(Cl)c(Cl)c1)c1cnc(C(O)CCc2ccc(Cl)cc2Cl)n1-c1ccc(F)cc1 (stereo not drawn) [3-(2,4-dichlorophenyl)-1-{5-[1-(3,4-dichlorophenyl)-1-methylethyl]-1-(4-fluorophenyl)-1H-imidazol-2-yl}propan-1-ol] | 1000 to 10000 nM
CC(C)(c1ccc(Cl)c(Cl)c1)c1cnc(SCc2ccc(-c3nnn[nH]3)c(F)c2)n1-c1ccc(F)cc1 [5-{4-[({5-[1-(3,4-dichlorophenyl)-1-methylethyl]-1-(4-fluorophenyl)-1H-imidazol-2-yl}thio)methyl]-2-fluorophenyl}-1H-tetrazole] | 100 to 1000 nM
CC(C)(c1ccc(Cl)c(Cl)c1)c1cnc(SCC2CCNCC2)n1-c1ccc(F)cc1 [4-[({5-[1-(3,4-dichlorophenyl)-1-methylethyl]-1-(4-fluorophenyl)-1H-imidazol-2-yl}thio)methyl]piperidine] | 1000 to 10000 nM
CC(C)(c1ccc(Cl)c(Cl)c1)c1cnc(SCc2ccc(F)cc2Cl)n1-c1ccc(F)c(C(F)(F)F)c1 [2-{[(2-chloro-4-fluorophenyl)methyl]thio}-5-[1-(3,4-dichlorophenyl)-1-methylethyl]-1-[4-fluoro-3-(trifluoromethyl)phenyl]-1H-imidazole] | 1000 to 10000 nM
COc1cc(C(C)(C)c2cnc(SCc3ccc(S(=O)(=O)NC(=O)NCCC(=O)O)cc3Cl)n2-c2ccc(F)cc2)ccc1Cl [N-[({[3-chloro-4-({[5-{1-[4-chloro-3-(methyloxy)phenyl]-1-methylethyl}-1-(4-fluorophenyl)-1H-imidazol-2-yl]thio}methyl)phenyl]sulfonyl}amino)carbonyl]-beta-alanine] | 100 to 1000 nM
CC(C)(c1ccc(Cl)c(Cl)c1)c1cnc(SCc2ccc(F)cc2Cl)n1-c1cc(F)cc(F)c1 [2-{[(2-chloro-4-fluorophenyl)methyl]thio}-5-[1-(3,4-dichlorophenyl)-1-methylethyl]-1-(3,5-difluorophenyl)-1H-imidazole] | 100 to 1000 nM
CC(C)(O)c1cc(CSc2ncc(C(C)(C)c3ccc(Cl)c(Cl)c3)n2-c2ccc(F)cc2)ccc1Cl [2-{2-chloro-5-[({5-[1-(3,4-dichlorophenyl)-1-methylethyl]-1-(4-fluorophenyl)-1H-imidazol-2-yl}thio)methyl]phenyl}propan-2-ol] | 100 to 1000 nM
CC(C)(c1ccc(Cl)c(Cl)c1)c1cnc(SCc2cc(C(N)=O)ccc2Cl)n1-c1ccc(F)cc1 [4-chloro-3-[({5-[1-(3,4-dichlorophenyl)-1-methylethyl]-1-(4-fluorophenyl)-1H-imidazol-2-yl}thio)methyl]benzamide] | 100 to 1000 nM
CC(C)(c1ccc(Cl)c(Cl)c1)c1c(-c2ccccc2)nc(SCc2c(F)cccc2Cl)n1-c1ccc(F)cc1 [2-{[(2-chloro-6-fluorophenyl)methyl]thio}-5-[1-(3,4-dichlorophenyl)-1-methylethyl]-1-(4-fluorophenyl)-4-phenyl-1H-imidazole] | 1000 to 10000 nM
CC(C)(c1ccc(Cl)c(Cl)c1)c1cnc(SCc2ccc(C(N)=O)cc2F)n1-c1ccc(F)cc1 [4-[({5-[1-(3,4-dichlorophenyl)-1-methylethyl]-1-(4-fluorophenyl)-1H-imidazol-2-yl}thio)methyl]-3-fluorobenzamide] | 100 to 1000 nM
CC(C)(c1ccc(Cl)c(Cl)c1)c1cnc(SCc2c(F)cccc2CO)n1-c1ccc(F)cc1 [{2-[({5-[1-(3,4-dichlorophenyl)-1-methylethyl]-1-(4-fluorophenyl)-1H-imidazol-2-yl}thio)methyl]-3-fluorophenyl}methanol] | 100 to 1000 nM
CC(C)(c1ccc(F)c(F)c1)c1cnc(SCc2ccc(F)cc2Cl)n1-c1ccc(F)cc1 [2-{[(2-chloro-4-fluorophenyl)methyl]thio}-5-[1-(3,4-difluorophenyl)-1-methylethyl]-1-(4-fluorophenyl)-1H-imidazole] | 100 to 1000 nM
COc1ccc(C(C)(C)c2cnc(S(=O)(=O)Cc3c(F)cccc3Cl)n2-c2ccc(F)cc2)cc1OC [5-{1-[3,4-bis(methyloxy)phenyl]-1-methylethyl}-2-{[(2-chloro-6-fluorophenyl)methyl]sulfonyl}-1-(4-fluorophenyl)-1H-imidazole] | < 100 nM
CC(C)(c1ccc(Cl)c(Cl)c1)c1cnc(-c2ccc(F)cc2)n1-c1ccc(F)cc1 [5-[1-(3,4-dichlorophenyl)-1-methylethyl]-1,2-bis(4-fluorophenyl)-1H-imidazole] | 100 to 1000 nM
CC(C)(c1ccc(Cl)c(Cl)c1)c1cnc(COCc2ccc(F)cc2Cl)n1-c1ccc(F)cc1 [2-({[(2-chloro-4-fluorophenyl)methyl]oxy}methyl)-5-[1-(3,4-dichlorophenyl)-1-methylethyl]-1-(4-fluorophenyl)-1H-imidazole] | 1000 to 10000 nM
CC(C)(c1ccc(Cl)c(Cl)c1)c1cnc(SCc2ccc(F)cc2Cl)n1-c1ccc(F)cc1 [2-{[(2-chloro-4-fluorophenyl)methyl]thio}-5-[1-(3,4-dichlorophenyl)-1-methylethyl]-1-(4-fluorophenyl)-1H-imidazole] | 100 to 1000 nM
CC(C)(c1ccc(Cl)c(Cl)c1)c1cnc(SCc2ccc(C(=O)NCCN3CCOCC3)cc2F)n1-c1ccc(F)cc1 [4-[({5-[1-(3,4-dichlorophenyl)-1-methylethyl]-1-(4-fluorophenyl)-1H-imidazol-2-yl}thio)methyl]-3-fluoro-N-(2-morpholin-4-ylethyl)benzamide] | 100 to 1000 nM
COc1ccc(C(C)(C)c2cnc(CNc3ccc(F)cc3Cl)n2-c2ccc(F)cc2)cc1OC [N-{[5-{1-[3,4-bis(methyloxy)phenyl]-1-methylethyl}-1-(4-fluorophenyl)-1H-imidazol-2-yl]methyl}-2-chloro-4-fluoroaniline] | < 100 nM
CC(C)(c1ccc(OCC(=O)O)c(Cl)c1)c1cnc(SCc2ccc(F)cc2Cl)n1-c1ccc(F)cc1 [[(2-chloro-4-{1-[2-{[(2-chloro-4-fluorophenyl)methyl]thio}-1-(4-fluorophenyl)-1H-imidazol-5-yl]-1-methylethyl}phenyl)oxy]acetic acid] | 1000 to 10000 nM
CC(C)(c1ccc(S(C)(=O)=O)cc1)c1cnc(SCc2ccc(S(=O)(=O)NC(=O)NN3CCCC3)cc2Cl)n1-c1ccc(F)cn1 [3-chloro-4-({[1-(5-fluoropyridin-2-yl)-5-{1-methyl-1-[4-(methylsulfonyl)phenyl]ethyl}-1H-imidazol-2-yl]thio}methyl)-N-[(pyrrolidin-1-ylamino)carbonyl]benzenesulfonamide] | 1000 to 10000 nM
CC(C)(O)c1ccc(CSc2ncc(C(C)(C)c3ccc(Cl)c(Cl)c3)n2-c2ccc(F)cc2)c(F)c1 [2-{4-[({5-[1-(3,4-dichlorophenyl)-1-methylethyl]-1-(4-fluorophenyl)-1H-imidazol-2-yl}thio)methyl]-3-fluorophenyl}propan-2-ol] | 100 to 1000 nM
CC(C)(c1ccc(F)c(F)c1)c1cnc(SCc2c(F)cc(C(=O)O)cc2Cl)n1-c1ccc(F)cc1 [3-chloro-4-[({5-[1-(3,4-difluorophenyl)-1-methylethyl]-1-(4-fluorophenyl)-1H-imidazol-2-yl}thio)methyl]-5-fluorobenzoic acid] | 100 to 1000 nM
